This is an account of results in paper PMC11110238, “Synthesis of novel carbazole hydrazine-carbothioamide scaffold as potent antioxidant, anticancer and antimicrobial agents” (BMC Chemistry, 2024).

Each structure is given as a SMILES string. Converted amounts (≈) assume the structure as drawn. Marks after values point to notes of the source that are not given here. Some results are limits rather than exact numbers.

Broadly, the melting point is the temperature of the solid-liquid transition. Usually IC50 stands for the point on the concentration scale where inhibition reaches its midpoint.

The nature of data set [1]: DPPH radical scavenging assay. The class given is biochemical. As to conditions: 30 min, 517 nm. As to the method:
To estimate the Carbazole derivatives' antioxidant potential, a solution of each compound (1 mM/mL) in methanol was serially diluted with methanol to obtain a concentration of 1, 2, 5, 10, 20, 50, and 100 µM/mL. Then, DPPH (2,2-diphenyl-1-picrylhydrazyl) reagent (Sigma, USA) was dissolved in 0.002% w/v methanol and mixed with the previously prepared working concentrations in a 1:1 ratio. The same procedures were repeated for Trolox (Sigma-Aldrich, Denmark), which was used as a positive control. All of the solutions were kept in the dark chamber for 30 min at an ordinary temperature. Then, their absorbance values were measured at a wavelength of 517 nm utilizing a UV–visible spectrophotometer. The DPPH inhibition potentials by Carbazole derivatives and Trolox were determined employing the following equation: DPPH inhibition(\%)=abs(blank)-abs(sample)/abs(blank)∗100\% where absblank is the blank absorbance and abssample is the absorbance of the samples [58]. The antioxidant half-maximal inhibitory concentration (IC50) of the synthesized carbazole derivatives and Trolox were assessed by using an online tool “Quest Graph™ IC50 Calculator.” AAT Bioquest, Inc., 25 May. 2023, https://www.aatbio.com/tools/ic50-calculator.

For data set [2], the system named is MCF-7 cell line. In words: MTT cell viability, MCF-7 cancer cell line. Type of data set: cell-based. As to conditions: Homo sapiens, MCF7; MTT, 48 h; read-out: IC50 values Carbazole Derivatives Effect on MCF-7 Cell Line. As to the method: MCF-7 cancer cell lines were cultured at Dulbecco’s Modified Eagle Medium High Glucose (DMEM) (EuroClone, Via Figino, Italy); fetal bovine serum (FBS) and MTT (3-(4,5-Dimethylthiazol-2-yl)-2,5-Diphenyl Tetrazolium Bromide) were provided by Sigma-Aldrich (Darmstadt, Germany); ApopNexin Annexin-V-FITC with PI Apoptosis Kit was obtained from Merck (Darmstadt, Germany); Total RNA Isolation Kit was provided by Analytic Jena (Jena, Germany), SensiFast cDNA Synthesis Kit was provided by Meridian Bioscience (Cincinati, USA), SybrGreen Master Mix was obtained from EuroClone (Via Figino, Italy).
Cells (MCF-7 and L929) were incubated in 75 cm^2 sterile flasks with 10% FBS, 100 U/mL penicillin, and 100 µg/mL streptomycin. The cells were grown at 37 ^○C in 5% CO2, and MTT was used to screen the viability of the cells. Cells were seeded at a density of 10^4 cells per well. The cells were then cultured for 24 h in 100 µl of DMEM complete medium. After pretreatment with different concentrations of the compounds for 48 h, 10 µl of 5 mg/mL MTT solution was added to each well and incubated for 4 h at 37 ^○C, and 100 µl of DMSO was used in each well to dissolve the blue formazan crystals. Then, the absorbance was measured at 570 nm. The cell viability percentages of compound 4o against MCF-7 cancer cell lines and L929 normal cell lines were presented in Fig. 2 in comparison with doxorubicin anticancer agent.

The test system of data set [3] is Escherichia coli. Kind of data set: MIC and MBC test, E. coli. Type of data set: cell-based. As to the method:
(§1) Using Muller Hinton agar medium, the antibacterial activity was evaluated by using 24 h cultures of Escherichia coli, Staphylococcus aureus, and Candida albicans. E. coli and S. aureus were incubated in 1% Mueller Hinton Broth (MHB) liquid medium at 37 °C for 24 h; C. albicans was incubated in Sabouraud Dextrose Broth (SDB) at 30 °C for 48 h. MIC (Minimum Inhibitory Concentration) and MBC (Minimum Bactericidal Concentration) tests were performed to determine antimicrobial activity. This stage was carried out in a sterile cabinet.
(§2) The density of microorganisms in fresh cultures was adjusted according to the MacFarland 0.5 scale. For that, the microorganisms were centrifuged at 4000 rpm for 20 min. The supernatant was poured off, and the pellet was washed with 1 mL of 0.9% NaCl solution (physiological saline). The centrifugation was then repeated. The pellet was dissolved again with saline solution and adjusted to 0.5 MacFarland. In the experiment performed in a sterile 96-well plate, compound 4o was diluted ½ with DMSO to prepare a stock solution. In the first, 100 µl of medium and 100 µl of compound 4o as initial dilutions. Dilution was performed seven times at a ratio of ½. Then, 5 µl of fresh microorganism cultures prepared as MacFarland 0.5 were inoculated. The control group was prepared as 100 µl medium, 100 µl distilled water, and 5 µl microorganisms. The plates were incubated at 37 °C and 30 °C for 24 h.
(§3) After incubation, 10 µl of the sample was taken, dropped onto the respective media, and incubated for 24 h at appropriate temperatures to clearly distinguish the residues left by the compound 4o and the growth of microorganisms. Mueller Hinton Agar (MHA) was used for E. coli and S. aureus, and Potato Dextrose Agar (PDA) was used for C. albicans. After incubation, MIC and MBC values were determined. The first well with a significant decrease in growth was considered as MIC, and the first well with no growth was considered as MBC [59, 60].

The subject of data set [4] is Staphylococcus aureus. Kind of data set: MIC and MBC test, S. aureus. The class given is cell-based. The protocol:
as §1, §2, §3

The subject of data set [5] is Candida albicans. In words: MIC and MBC test, C. albicans. The class given is cell-based. The protocol: as §1, §2, §3

With `O=C(Cn1c2ccccc2c2ccccc21)NNC(=S)Nc1ccc(Br)cc1` [Compound 4g, 2-(2-(9H-carbazol-9-yl)acetyl)-N-(4-bromophenyl)hydrazine-1-carbothioamide], the melting point was 255 to 257 °C. Besides, the half-inhibitory concentration (IC50) in data set [1] turned out to be 4.14 ± 0.75 µM. In addition, in data set [2], the IC50 was > 20 µM.

Turning to `O=C(Cn1c2ccccc2c2ccccc21)NNC(=S)NCCc1ccccc1` [Compound 4s, 2-(2-(9H-carbazol-9-yl)acetyl)-N-phenethylhydrazine-1-carbothioamide], the melting point lay in the range of 170 to 172 °C. The compound further came in with an IC50 in data set [1] of 3.05 ± 1.75 µM. In addition, in data set [2], the IC50 is > 20 µM.

Take `C[C@H]1c2cccc(O)c2C(=O)C2=C(O)[C@]3(O)C(=O)C(C(N)=O)=C(O)[C@@H](N(C)C)[C@@H]3[C@@H](O)[C@@H]21` [Doxycyline, reference compound]: the MBC is recorded as 50.9^a µM in data set [3] and 63.0^a µM in data set [4]. Besides, the MIC in data set [3] is reported as 5.09^a µM.

Take `O=C(Cn1c2ccccc2c2ccccc21)NNC(=S)NC1CCCCC1` [Compound 4m, 2-(2-(9H-carbazol-9-yl)acetyl)-N-cyclohexylhydrazine-1-carbothioamide]: the melting point was 211 to 213 °C. This compound showed a half-inhibitory concentration (IC50) in data set [1] of 2.37 ± 1.7 µM. Also, the IC50 in data set [2] was > 20 µM.

For the compound `O=C(Cn1c2ccccc2c2ccccc21)NNC(=S)Nc1cccc2ccccc12` [Compound 4d, 2-(2-(9H-carbazol-9-yl)acetyl)-N-(naphthalen-1-yl)hydrazine-1-carbothioamide], the melting point was 222 to 224 °C. In data set [1], this compound came in with a 50% inhibitory concentration (IC50) of 29.7 ± 1.77 µM. In addition, in data set [2], the half-maximal inhibitory concentration (IC50) is > 20 µM.

As to `O=C(Cn1c2ccccc2c2ccccc21)NNC(=S)NCCCN1CCOCC1` [Compound 4c, 2-(2-(9H-carbazol-9-yl)acetyl)-N-(3-morpholinopropyl)hydrazine-1-carbothioamide], the melting point was in the range of 189 to 191 °C. For the same compound, the IC50 in data set [1] amounted to 8.99 ± 2.17 µM. Besides, the half-inhibitory concentration (IC50) in data set [2] is > 20 µM.

With `Cc1ccc(NC(=S)NNC(=O)Cn2c3ccccc3c3ccccc32)cc1` [Compound 4n, 2-(2-(9H-carbazol-9-yl)acetyl)-N-(p-tolyl)hydrazine-1-carbothioamide], the melting point was in the range of 180 to 182 °C. In addition, the 50% inhibitory concentration (IC50) in data set [1] turned out to be 1.52 ± 0.58 µM. The IC50 in data set [2] is > 20 µM.

On to `CC(C)NC(=S)NNC(=O)Cn1c2ccccc2c2ccccc21` [Compound 4t, 2-(2-(9H-carbazol-9-yl)acetyl)-N-isopropylhydrazine-1-carbothioamide], for which the melting point lay within 186 to 188 °C. 15.9 ± 2.07 µM corresponded to half-maximal inhibition in data set [1] (IC50). Besides, the half-maximal inhibitory concentration (IC50) in data set [2] is > 20 µM.

`CNC(=S)NNC(=O)Cn1c2ccccc2c2ccccc21` [Compound 4z, 2-(2-(9H-carbazol-9-yl)acetyl)-N-methylhydrazine-1-carbothioamide] had a melting point of 173 to 175 °C. The IC50 in data set [1] stood at 21.6 ± 0.87 µM. The IC50 in data set [2] was > 20 µM.

`O=C(Cn1c2ccccc2c2ccccc21)NNC(=S)NCc1ccccc1` [Compound 4p, 2-(2-(9H-carbazol-9-yl)acetyl)-N-benzylhydrazine-1-carbothioamide] returned a melting point of 169 to 171 °C. For the same compound, the IC50 in data set [1] was determined as 10.2 ± 1.85 µM. Besides, the IC50 in data set [2] is > 20 µM.

As for `OC(Cn1cncn1)(Cn1cncn1)c1ccc(F)cc1F` [fluconazole, reference compound], the MBC in data set [5] worked out at 16.3 µM (≈ 4.99 µg/mL).

The compound `O=C(Cn1c2ccccc2c2ccccc21)NNC(=S)Nc1ccc([N+](=O)[O-])cc1` [Compound 4e, 2-(2-(9H-carbazol-9-yl)acetyl)-N-(4-nitrophenyl)hydrazine-1-carbothioamide] registered a melting point of 235 to 237 °C. This compound also registered an IC50 in data set [1] of 50.8 ± 1.88 µM. For the same compound, in data set [2], the IC50 is > 20 µM.

`O=C(Cn1c2ccccc2c2ccccc21)NNC(=S)Nc1ccc(C(F)(F)F)cc1` [Compound 4k, 2-(2-(9H-carbazol-9-yl)acetyl)-N-(4-(trifluoromethyl)phenyl)hydrazine-1-carbothioamide] gave a melting point of 177 to 179 °C. This compound also came in with an IC50 in data set [1] of 2.08 ± 0.72 µM. Also, the half-inhibitory concentration (IC50) in data set [2] is > 20 µM.

`COc1cccc(NC(=S)NNC(=O)Cn2c3ccccc3c3ccccc32)c1` [Compound 4b, 2-(2-(9H-carbazol-9-yl)acetyl)-N-(3-methoxyphenyl)hydrazine-1-carbothioamide] gave a melting point of 218 to 220 °C. Moreover, in data set [1], the half-maximal inhibitory concentration (IC50) amounted to 5.15 ± 1.02 µM. Further, in data set [2], the concentration for half-maximal inhibition (IC50) is > 20 µM.

In data set [1], `Cc1c(C)c2c(c(C)c1O)CCC(C)(C(=O)O)O2` (centres unmarked) [Trolox, reference compound] had a half-maximal inhibitory concentration (IC50) of 7.71 ± 1.47 µM.

`O=C(Cn1c2ccccc2c2ccccc21)NNC(=S)Nc1ccc(Cl)cc1` [Compound 4h, 2-(2-(9H-carbazol-9-yl)acetyl)-N-(4-chlorophenyl)hydrazine-1-carbothioamide] displayed a melting point of 235 to 237 °C. In data set [1], the IC50 is 0.73 ± 0.54 µM. The 50% inhibitory concentration (IC50) in data set [2] was > 20 µM.

Regarding `O=C(Cn1c2ccccc2c2ccccc21)NNC(=S)Nc1ccccc1` [Compound 4a, 2-(2-(9H-carbazol-9-yl)acetyl)-N-phenylhydrazine-1-carbothioamide], the melting point lay within 235 to 237 °C. In addition, the IC50 in data set [1] came out at 52.1 ± 2.42 µM. In addition, the IC50 in data set [2] is > 20 µM.

As for `O=C(Cn1c2ccccc2c2ccccc21)NNC(=S)NC1CC2CCC1C2` (centres unmarked) [Compound 4r, 2-(2-(9H-carbazol-9-yl)acetyl)-N-(bicyclo[2.2.1]heptan-2-yl)hydrazine-1-carbothioamide], the melting point was 199 to 201 °C. The same compound registered an IC50 in data set [1] of 19.9 ± 1.55 µM. Moreover, the IC50 in data set [2] came to 4.99 ± 0.42 µM.

Compound `COc1ccc(NC(=S)NNC(=O)Cn2c3ccccc3c3ccccc32)cc1` [Compound 4f, 2-(2-(9H-carbazol-9-yl)acetyl)-N-(4-methoxyphenyl)hydrazine-1-carbothioamide] displayed a melting point of 210 to 212 °C. In data set [1], this compound came in with a half-maximal inhibitory concentration (IC50) of 3.41 ± 1.05 µM. Further, in data set [2], the half-maximal inhibitory concentration (IC50) is > 20 µM.

In the case of `C=CCNC(=S)NNC(=O)Cn1c2ccccc2c2ccccc21` [Compound 4y, 2-(2-(9H-carbazol-9-yl)acetyl)-N-allylhydrazine-1-carbothioamide], the melting point lay within 205 to 207 °C. In data set [1], the concentration for half-maximal inhibition (IC50) turned out to be 0.38 ± 0.05 µM. Also, in data set [2], the IC50 is > 20 µM.
